Results published in PMC8747370, “Characterization of Two BAHD Acetyltransferases Highly Expressed in the Flowers of Jasminum sambac (L.) Aiton” (Plants, 2021).

Legend:
6xHis-JsBEAT2 = tested on: T1, 6xHis-JsBEAT2; assay: GC-MS of benzyl acetate formed, curve fit; assay type: biochemical, Jasminum sambac; details: 250 mM Tris-HCl pH 7.5, 25 mM MgCl2, 25 mM KCl, 10 mM β-mercaptoethanol, 30 °C, 1 h
T1 construct: full-length cDNA, N-terminal 6xHis tag (pQE30), E. coli M15, Ni-NTA purified
Source text: GC-MS of benzyl acetate formed, curve fit on 6xHis-JsBEAT2

GST-JsBEAT1 = tested on: T2, GST-JsBEAT1; assay: GC-MS of benzyl acetate formed, curve fit; assay type: biochemical, Jasminum sambac; details: 250 mM Tris-HCl pH 7.5, 25 mM MgCl2, 25 mM KCl, 10 mM β-mercaptoethanol, 30 °C, 1 h
T2 construct: tag kept
Source text: GC-MS of benzyl acetate formed, curve fit on GST-JsBEAT1

Question: For OCc1ccccc1 [benzyl alcohol], which Km (6xHis-JsBEAT2; with acetyl-CoA (fixed concentration not restated)) is on record?
Answer: The Km was 279 ± 26.5 µM.

Question: What about the Km (GST-JsBEAT1; 300 μM acetyl-CoA (fixed)) of the same compound?
Answer: Its Km is 447 ± 108 µM.

Question: For CC(=O)SCCNC(=O)CCNC(=O)[C@H](O)C(C)(C)COP(=O)(O)OP(=O)(O)OC[C@H]1O[C@@H](n2cnc3c(N)ncnc32)[C@H](O)[C@@H]1OP(=O)(O)O [acetyl-CoA], which Km (6xHis-JsBEAT2; with benzyl alcohol (fixed concentration not restated)) is on record?
Answer: Its Km is 317 ± 31.7 µM.

Question: What about the Km (GST-JsBEAT1; 300 μM benzyl alcohol (fixed)) of the same compound?
Answer: The Km was 546 ± 94.5 µM.
